From the supplement of paper PMC10307832

Columns and labels:
Assay in all cases: relative viability (nuclei count vs DMSO), 5 days (fraction); higher = more cells survive
[1] = tested on: BEN
How it was run: (§1)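 Each reported value is a median over duplicate plates. It expresses relative viability: treated-well nuclei count divided by vehicle-well nuclei count. Lung cancer cell lines in 1536-well plates were dosed by pin tool a day after seeding, alone with one drug or with a fixed anchor-drug dose plus five library-drug doses (not always all listed) in √10 steps, and nuclei were counted after 5 days.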

[2] = tested on: EMC-BAC-2
How it was run: as §1

[3] = tested on: HCC-15
How it was run: as §1

[4] = tested on: HCC-44
How it was run: as §1

[5] = tested on: HOP-62
How it was run: as §1

[6] = tested on: LC-2-ad
How it was run: as §1

[7] = tested on: LU99A
How it was run: as §1

[8] = tested on: NCI-H1395
How it was run: as §1

[9] = tested on: NCI-H1437
How it was run: as §1

[10] = tested on: NCI-H1734
How it was run: as §1

[11] = tested on: NCI-H1755
How it was run: as §1

[12] = tested on: NCI-H1915
How it was run: as §1

[13] = tested on: NCI-H2023
How it was run: as §1

[14] = tested on: NCI-H2126
How it was run: as §1

[15] = tested on: NCI-H2170
How it was run: as §1

[16] = tested on: NCI-H3122
How it was run: as §1

[17] = tested on: NCI-H358
How it was run: as §1

[18] = tested on: NCI-H650
How it was run: as §1

[19] = tested on: NCI-H727
How it was run: as §1

[20] = tested on: SW 1573
How it was run: as §1

[21] = tested on: SW 900
How it was run: as §1

`Cc1csc(=NC2CCCCC2)n1/N=C/c1ccc(O)c(O)c1O` [MIM1] + Nc1ncn([C@H]2C[C@H](O)[C@@H](CO)O2)c(=O)n1 [Decitabine] (partner 2 µM) showed a relative viability ([1]; first compound 0.2 µM) of 0.811, a relative viability ([1]; first compound 0.6325 µM) of 0.547 and a relative viability ([1]; first compound 2 µM) of 0.797. It also gave a relative viability ([1]; first compound 6.325 µM) of 0.739, a relative viability ([1]; first compound 20 µM) of 0.317 and a relative viability ([2]; first compound 0.2 µM) of 0.97. It also gave a relative viability ([2]; first compound 0.6325 µM) of 0.897, a relative viability ([2]; first compound 2 µM) of 0.8 and a relative viability ([2]; first compound 6.325 µM) of 0.852. It also gave a relative viability ([2]; first compound 20 µM) of 0.368, a relative viability ([3]; first compound 0.2 µM) of 0.634 and a relative viability ([3]; first compound 0.6325 µM) of 0.607. For the same molecule, the relative viability ([3]; first compound 2 µM) was 0.66, the relative viability ([3]; first compound 6.325 µM) was 0.341 and the relative viability ([3]; first compound 20 µM) was 0.163. It also gave a relative viability ([4]; first compound 0.2 µM) of 0.905, a relative viability ([4]; first compound 0.6325 µM) of 0.85 and a relative viability ([4]; first compound 2 µM) of 0.866. The relative viability ([4]; first compound 6.325 µM) was 0.479, the relative viability ([4]; first compound 20 µM) was 0.405 and the relative viability ([5]; first compound 0.2 µM) was 0.206. For the same molecule, the relative viability ([5]; first compound 0.6325 µM) was 0.222, the relative viability ([5]; first compound 2 µM) was 0.206 and the relative viability ([5]; first compound 6.325 µM) was 0.222. For the same molecule, the relative viability ([5]; first compound 20 µM) was 0.147, the relative viability ([6]; first compound 0.2 µM) was 0.777 and the relative viability ([6]; first compound 0.6325 µM) was 0.736. For the same molecule, the relative viability ([6]; first compound 2 µM) was 0.868, the relative viability ([6]; first compound 6.325 µM) was 0.453 and the relative viability ([6]; first compound 20 µM) was 0.508. It also gave a relative viability ([7]; first compound 0.2 µM) of 0.87, a relative viability ([7]; first compound 0.6325 µM) of 0.845 and a relative viability ([7]; first compound 2 µM) of 0.927. It also gave a relative viability ([7]; first compound 6.325 µM) of 0.889, a relative viability ([7]; first compound 20 µM) of 0.393 and a relative viability ([8]; first compound 0.2 µM) of 0.708. For the same molecule, the relative viability ([8]; first compound 0.6325 µM) was 0.793, the relative viability ([8]; first compound 2 µM) was 0.646 and the relative viability ([8]; first compound 6.325 µM) was 0.688. For the same molecule, the relative viability ([8]; first compound 20 µM) was 0.427, the relative viability ([9]; first compound 0.2 µM) was 0.592 and the relative viability ([9]; first compound 0.6325 µM) was 0.547. The relative viability ([9]; first compound 2 µM) was 0.586, the relative viability ([9]; first compound 6.325 µM) was 0.368 and the relative viability ([9]; first compound 20 µM) was 0.303. For the same molecule, the relative viability ([10]; first compound 0.2 µM) was 0.458, the relative viability ([10]; first compound 0.6325 µM) was 0.492 and the relative viability ([10]; first compound 2 µM) was 0.452. It also gave a relative viability ([10]; first compound 6.325 µM) of 0.323, a relative viability ([10]; first compound 20 µM) of 0.178 and a relative viability ([11]; first compound 0.2 µM) of 0.724. For the same molecule, the relative viability ([11]; first compound 0.6325 µM) was 0.694, the relative viability ([11]; first compound 2 µM) was 0.727 and the relative viability ([11]; first compound 6.325 µM) was 0.657. The relative viability ([11]; first compound 20 µM) was 0.549, the relative viability ([12]; first compound 0.2 µM) was 0.263 and the relative viability ([12]; first compound 0.6325 µM) was 0.273. It also gave a relative viability ([12]; first compound 2 µM) of 0.256, a relative viability ([12]; first compound 6.325 µM) of 0.232 and a relative viability ([12]; first compound 20 µM) of 0.245. It also gave a relative viability ([13]; first compound 0.2 µM) of 0.24, a relative viability ([13]; first compound 0.6325 µM) of 0.215 and a relative viability ([13]; first compound 2 µM) of 0.212. The relative viability ([13]; first compound 6.325 µM) was 0.157, the relative viability ([13]; first compound 20 µM) was 0.0821 and the relative viability ([14]; first compound 0.2 µM) was 0.659. The relative viability ([14]; first compound 0.6325 µM) was 0.628, the relative viability ([14]; first compound 2 µM) was 0.545 and the relative viability ([14]; first compound 6.325 µM) was 0.584. The relative viability ([14]; first compound 20 µM) was 0.488, the relative viability ([15]; first compound 0.2 µM) was 0.448 and the relative viability ([15]; first compound 0.6325 µM) was 0.455. The relative viability ([15]; first compound 2 µM) was 0.494, the relative viability ([15]; first compound 6.325 µM) was 0.401 and the relative viability ([15]; first compound 20 µM) was 0.27. It also gave a relative viability ([16]; first compound 0.2 µM) of 0.449, a relative viability ([16]; first compound 0.6325 µM) of 0.507 and a relative viability ([16]; first compound 2 µM) of 0.487. For the same molecule, the relative viability ([16]; first compound 6.325 µM) was 0.407, the relative viability ([16]; first compound 20 µM) was 0.411 and the relative viability ([17]; first compound 0.2 µM) was 0.212. For the same molecule, the relative viability ([17]; first compound 0.6325 µM) was 0.224, the relative viability ([17]; first compound 2 µM) was 0.216 and the relative viability ([17]; first compound 6.325 µM) was 0.148. The relative viability ([17]; first compound 20 µM) was 0.119, the relative viability ([18]; first compound 0.2 µM) was 0.294 and the relative viability ([18]; first compound 0.6325 µM) was 0.342. For the same molecule, the relative viability ([18]; first compound 2 µM) was 0.345, the relative viability ([18]; first compound 6.325 µM) was 0.323 and the relative viability ([18]; first compound 20 µM) was 0.206. The relative viability ([19]; first compound 0.2 µM) was 0.994, the relative viability ([19]; first compound 0.6325 µM) was 0.818 and the relative viability ([19]; first compound 2 µM) was 0.841. The relative viability ([19]; first compound 6.325 µM) was 0.879, the relative viability ([19]; first compound 20 µM) was 0.574 and the relative viability ([20]; first compound 0.2 µM) was 0.592. It also gave a relative viability ([20]; first compound 0.6325 µM) of 0.516, a relative viability ([20]; first compound 2 µM) of 0.429 and a relative viability ([20]; first compound 6.325 µM) of 0.306. It also gave a relative viability ([20]; first compound 20 µM) of 0.166, a relative viability ([21]; first compound 0.2 µM) of 0.345 and a relative viability ([21]; first compound 0.6325 µM) of 0.482. The relative viability ([21]; first compound 2 µM) was 0.486, the relative viability ([21]; first compound 6.325 µM) was 0.31 and the relative viability ([21]; first compound 20 µM) was 0.206.
